{"source": "patent US20210285004A1", "about": "“Bidirectional Constitutive Promoter and Uses, and Transfection Methods for B. Microti” (MJKS Research LLC, priority 2020, published 2021)", "key": {"B. microti [1]": {"test_system": "B. microti", "assay": "Promoter strength comparison by reporter gene analysis (RLU, luminometer)", "format": "cell-based, Babesia microti", "details": "reporter gene construct, FIG. 5", "experimental": "In FIG. 5, the improved strength of the Babesia promoter (here: B. microti or “BM”) compared to a strong constitutive promoter (here: PBANKA DHFR of SEQ ID NO:2) is shown.\nThe strength of a Babesia-based promoter (for example, without limitation, the BM-CTQ41297 promoter of SEQ ID NO:1) and that of a strong constitutive promoter (here: PBANKA DHFR, SEQ ID NO:2) are determined and compared, representative results are shown in FIG. 5. A promoter (SEQ ID NO:1, from B. microti or “BM”) is compared to PBANKA-DHFR (known to be a strong constitutive promoter), a blank/negative control, and, as a further negative control, human EF1b promoter. The promoter constructs are prepared as described in examples 1 and 4, respectively. Relative Light Units (RLU) are measured by luminometer. […] Similarly the constitutive promoter human EF1b is outperformed by a Babesia-based promoter, including e.g. by the B. microti promoter (as shown in FIG. 5). As determined by reporter gene analysis, the Babesia promoter is at least about 5 to 6 times stronger compared to PBANKA-DHFR (a promoter derived from a rodent malaria parasite Plasmodium berghei with strong constitutive activity commonly used for the expression of reporter genes in various apicomplexan parasites), see results shown in FIG. 5."}, "B. microti [2]": {"test_system": "B. microti", "assay": "Transient transfection of B. microti with promoter constructs, reporter expression by fluorescence microscopy", "format": "cell-based, Babesia microti", "details": "two days after transfection, infected RBC from C57BL/6J mice", "experimental": "A transfection of parasites with a parasite promoter (here: B. microti & SEQ ID NO:1) is performed as follows. A schematic representation of the genomic location of the B. microti promoter of SEQ ID NO:1 (BM-CTQ41297 promoter) is shown in FIG. 1a. As shown in the figure, the promoter is flanked by the two different genes. The episomal constructs may be based on a standard cloning vector such as Bluescript (pBSK (+)) and modified for expression accordingly; the constructs used are shown schematically in FIG. 1b. As a negative control (B), B. microti parasites transfected with a blank vector without reporter gene insert (but with BM-CTQ41297 promoter and 3′UTR, compare SEQ ID NO: 35). […] Electroporation for both genes is performed as follows. […]\nAfter electroporation, the parasites are immediately injected into C57BL/6J mice and after two days of transfection analyzed by fluorescence microscopy as follows: a drop of blood is collected in a 1.5 ml tube containing heparin from the tail of mice infected with transfected parasites. […] The transfected parasites are analyzed by fluorescence microscopy to check if transfected parasites express the reporter gene (here: GFP) using a fluorescence microscope, e.g. Axio Imager M2®, Zeiss®, Dublin, Calif.). The transfected parasites are reporter gene (e.g. here: GFP) positive as confirmed by fluorescence microscopy and shown in FIG. 1c, see C. […]"}}, "data": [{"substance": "PBANKA-DHFR: Strong constitutive DHFR promoter from Plasmodium berghei, SEQ ID NO:2, 2262 bp [reference compound]", "values": [{"measurement": "RLU (Relative Light Unit) values", "setting": "B. microti [1]", "result": "about 60 RLU"}, {"measurement": "reporter gene expression (GFP/mCherry fluorescence)", "setting": "B. microti [2]", "result": "expression of GFP"}]}]}
